Results: PMC8509398, “Proteolytic Cleavage of Bioactive Peptides and Protease-Activated Receptors in Acute and Post-Colitis” (International Journal of Molecular Sciences, 2021)
Residues, ends and D or L forms follow the SMILES beside them.

Tests used:
[1] = target: trypsin-1 (Homo sapiens, UniProt P07477); assay: Cleavage of peptides by purified trypsin-1, MALDI-TOF/TOF; settings: 25 nM protease, 10 µM peptide; for Incubation time at which the first cleavage or decrease of the full-length peptide was observed, trypsin-1: 37 °C, time points 2, 5, 10, 30 min
Text: (§1) Trypsin-like proteases included in the experiments are trypsin-1, -2 and -3, tryptase (Enzo LifeSciences), thrombin (Sigma-Aldrich) and cathepsin G (Sigma-Aldrich). Trypsin-1, -2 and -3 were produced as described by Koistinen et al. and Wu et al.. Two elastase-like enzymes, neutrophil elastase (Enzo LifeSciences, Farmingdale, NY, USA) and pancreatic elastase I (Sigma-Aldrich) were included as well. All enzymes were from human origin except for pancreatic elastase from porcine pancreas.
(§2) Reaction mixtures with purified enzymes were compiled in an identical way. Each mixture contained an equimolar concentration of protease (25 nM based on) and 10 µM peptide of interest and was incubated for 2, 5, 10 and 30 min at 37 °C. Substance P was added as the standard peptide except for the reaction mixtures with substance P or bradykinin as the peptide of interest, where angiotensin II (Bachem) was added.
(§3) The TFA mixtures were thawed on ice and desalted using C18 zip-tips (Merck Millipore®, Burlington, MA, USA) with a capacity of 5 µg protein. Retained peptide fragments were eluted directly on the MALDI target plate. Next, 0.5 µL of a 2.5 mg/mL α-cyano-4-hydroxycinnamic acid (Sigma-Aldrich) matrix solution (in 70% acetonitrile, 0.1% TFA) was spotted on top of the sample. A 6-Peptide mixture Kit (AB Sciex, Framingham, MA, USA) containing bradykinin (2–9), angiotensin I, glu1-fibrinopeptide, ACTH (1–17), ACTH (18–39) and ACTH (7–38) was diluted with matrix and spotted on the plate as well.
(§4) MS and MS/MS data for peptide fragment identification were obtained with a MALDI-TOF/TOF instrument (4800 MALDI TOF/TOF™, Applied Biosystems, Waltham, MA, USA) and instrument parameters were set using 4000 Series Explorer™ software. MS spectra were recorded in positive reflector mode in a mass range from 500 to 4000 Da and laser intensity of 4500–4800 Hz. The spectra were calibrated using the calibration mixture mentioned above to a mass tolerance of 0.1 Da. MS/MS spectra were recorded with high-energy collision-induced dissociation and the laser intensity was increased by 10%. Precursor mass m/z 1570.65 (Glu1-Fibrinopeptide from the calibration mixture) was used to calibrate the MS/MS spectra to a mass tolerance of 0.1 Da.
(§5) MS and MS/MS spectra were processed using DataExplorer™ software and the obtained output files were uploaded in the MS-PEP data analyzer (https://bioit.shinyapps.io/PARs/ accessed 10/08/2020) for peptide fragment identification. Identified fragments were confirmed using the MS/MS spectra and mMass 5.5.0 by Martin Strohalm. The relative intensities of the fragments were calculated as the ratio of the intensity of the peak of interest to the intensity of the peak of the standard peptide.

[2] = target: trypsin-2 (Homo sapiens, UniProt P07478); assay: Cleavage of peptides by purified trypsin-2, MALDI-TOF/TOF; settings: 25 nM protease, 10 µM peptide; for Incubation time at which the first cleavage or decrease of the full-length peptide was observed, trypsin-2: 37 °C, time points 2, 5, 10, 30 min
trypsin-2, sequence (P07478 24-247): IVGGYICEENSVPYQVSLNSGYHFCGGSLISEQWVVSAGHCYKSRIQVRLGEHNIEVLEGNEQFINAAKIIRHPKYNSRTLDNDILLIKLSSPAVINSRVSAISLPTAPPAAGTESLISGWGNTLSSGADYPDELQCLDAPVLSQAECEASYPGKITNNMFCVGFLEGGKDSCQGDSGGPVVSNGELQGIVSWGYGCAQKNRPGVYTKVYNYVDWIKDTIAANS
Text: as §1, §2, §3, §4, §5

[3] = target: T1, trypsin-3 (Homo sapiens, UniProt P35030); assay: Cleavage of peptides by purified trypsin-3, MALDI-TOF/TOF; settings: 25 nM protease, 10 µM peptide; for Incubation time at which the first cleavage or decrease of the full-length peptide was observed, trypsin-3: 37 °C, time points 2, 5, 10, 30 min
T1 sequence (P35030 1-304): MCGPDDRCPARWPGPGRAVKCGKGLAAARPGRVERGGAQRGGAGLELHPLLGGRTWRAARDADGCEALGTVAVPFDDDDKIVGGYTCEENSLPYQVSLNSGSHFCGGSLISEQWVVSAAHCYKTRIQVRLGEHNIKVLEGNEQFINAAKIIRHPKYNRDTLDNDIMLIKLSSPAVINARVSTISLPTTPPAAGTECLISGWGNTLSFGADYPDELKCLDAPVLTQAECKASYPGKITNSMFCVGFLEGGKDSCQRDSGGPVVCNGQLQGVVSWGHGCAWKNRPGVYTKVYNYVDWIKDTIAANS
Text: as §1, §2, §3, §4, §5

[4] = target: tryptase (Homo sapiens, UniProt Q15661); assay: Cleavage of peptides by purified tryptase, MALDI-TOF/TOF; settings: 25 nM protease, 10 µM peptide; for Incubation time at which the first cleavage or decrease of the full-length peptide was observed, tryptase: 37 °C, time points 2, 5, 10, 30 min
tryptase, sequence (Q15661 31-275): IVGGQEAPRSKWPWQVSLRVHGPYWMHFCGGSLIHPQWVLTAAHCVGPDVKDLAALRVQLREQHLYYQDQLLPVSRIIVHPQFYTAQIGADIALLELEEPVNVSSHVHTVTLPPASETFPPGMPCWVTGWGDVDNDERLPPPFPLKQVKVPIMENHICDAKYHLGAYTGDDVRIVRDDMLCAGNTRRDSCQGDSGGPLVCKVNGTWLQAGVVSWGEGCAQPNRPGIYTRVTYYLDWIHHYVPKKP
Text: as §1, §2, §3, §4, §5

[5] = target: thrombin (Homo sapiens, UniProt P00734); assay: Cleavage of peptides by purified thrombin, MALDI-TOF/TOF; settings: 25 nM protease, 10 µM peptide; for Incubation time at which the first cleavage or decrease of the full-length peptide was observed, thrombin: 37 °C, time points 2, 5, 10, 30 min
Text: as §1, §2, §3, §4, §5

[6] = target: T2, cathepsin G (Homo sapiens, UniProt P08311); assay: Cleavage of peptides by purified cathepsin G, MALDI-TOF/TOF; settings: 25 nM protease, 10 µM peptide
T2 sequence (P08311 21-255): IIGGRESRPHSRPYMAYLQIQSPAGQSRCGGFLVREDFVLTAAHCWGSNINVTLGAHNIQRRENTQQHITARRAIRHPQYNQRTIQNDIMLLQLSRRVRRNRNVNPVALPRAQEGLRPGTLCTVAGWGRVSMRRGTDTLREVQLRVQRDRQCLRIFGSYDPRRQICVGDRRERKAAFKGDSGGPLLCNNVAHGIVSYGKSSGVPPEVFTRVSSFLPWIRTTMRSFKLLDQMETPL
Text: as §1
(§6) Reaction mixtures with purified enzymes were compiled in an identical way. […] Substance P was added as the standard peptide except for the reaction mixtures with substance P or bradykinin as the peptide of interest, where angiotensin II (Bachem) was added.
as §3
as §4, with “10%.” for “10%. Precursor mass m/z 1570.65 (Glu1-Fibrinopeptide from the calibration mixture) was used to calibrate the MS/MS spectra to a mass tolerance of 0.1 Da.”
(§7) Identified fragments were confirmed using the MS/MS spectra and mMass 5.5.0 by Martin Strohalm. The relative intensities of the fragments were calculated as the ratio of the intensity of the peak of interest to the intensity of the peak of the standard peptide.

[7] = target: T3, neutrophil elastase (Homo sapiens, UniProt P08246); assay: Cleavage of peptides by purified neutrophil elastase, MALDI-TOF/TOF; settings: 25 nM protease, 10 µM peptide; for Incubation time at which the first cleavage or decrease of the full-length peptide was observed, neutrophil elastase: 37 °C, time points 2, 5, 10, 30 min
T3 sequence (P08246 30-267): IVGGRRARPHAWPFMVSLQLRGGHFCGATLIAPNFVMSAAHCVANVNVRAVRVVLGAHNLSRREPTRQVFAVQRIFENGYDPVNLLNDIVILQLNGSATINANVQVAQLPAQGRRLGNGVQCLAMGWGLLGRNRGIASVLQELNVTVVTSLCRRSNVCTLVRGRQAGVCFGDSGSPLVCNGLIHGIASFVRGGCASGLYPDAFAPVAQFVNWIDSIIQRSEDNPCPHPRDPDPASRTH
Text: as §1, §6, §3
as §4, with “10%.” for “10%. Precursor mass m/z 1570.65 (Glu1-Fibrinopeptide from the calibration mixture) was used to calibrate the MS/MS spectra to a mass tolerance of 0.1 Da.”
as §7

[8] = target: pancreatic elastase I (Sus scrofa, UniProt P00772); assay: Cleavage of peptides by purified pancreatic elastase, MALDI-TOF/TOF; settings: 25 nM protease, 10 µM peptide; for Incubation time at which the first cleavage or decrease of the full-length peptide was observed, pancreatic elastase: 37 °C, time points 2, 5, 10, 30 min
pancreatic elastase I, sequence (P00772 27-266): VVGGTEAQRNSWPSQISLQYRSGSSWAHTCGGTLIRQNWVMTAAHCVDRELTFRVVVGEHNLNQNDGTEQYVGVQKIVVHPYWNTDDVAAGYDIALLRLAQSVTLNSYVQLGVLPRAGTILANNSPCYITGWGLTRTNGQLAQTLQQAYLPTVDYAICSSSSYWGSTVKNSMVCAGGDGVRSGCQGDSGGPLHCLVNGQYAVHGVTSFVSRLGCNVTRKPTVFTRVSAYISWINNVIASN
Text: as §1, §6, §3
as §4, with “10%.” for “10%. Precursor mass m/z 1570.65 (Glu1-Fibrinopeptide from the calibration mixture) was used to calibrate the MS/MS spectra to a mass tolerance of 0.1 Da.”
as §7

[9] = PAR-based peptides, 37 °C, 2, 5, 10 and 30 min
[10] = 37 °C, 2, 5, 10 and 30 min, stopped with 2% TFA

CC[C@H](C)[C@H](NC(=O)[C@H](CO)NC(=O)[C@@H]1CCCN1C(=O)[C@@H](NC(=O)[C@H](CO)NC(=O)[C@H](CC(=O)O)NC(=O)[C@H](CC(=O)O)NC(=O)CNC(=O)CNC(=O)CNC(=O)[C@@H](NC(=O)[C@H](CO)NC(=O)CNC(=O)[C@H](CO)NC(=O)[C@H](CCC(=O)O)NC(=O)[C@H](CC(=O)O)NC(=O)[C@H](Cc1ccc(O)cc1)NC(=O)[C@@H](NC(=O)[C@H](CO)NC(=O)[C@@H]1CCCN1C(=O)[C@@H](NC(=O)[C@H](CCC(N)=O)NC(=O)[C@@H](NC(=O)CNC(=O)CN)[C@@H](C)O)[C@@H](C)O)C(C)C)[C@@H](C)O)[C@@H](C)O)C(=O)N[C@@H](CC(C)C)C(=O)N1CCC[C@H]1C(=O)N[C@@H](C)C(=O)N1CCC[C@H]1C(=O)N[C@@H](CCCNC(=N)N)C(=O)NCC(=O)N[C@@H](Cc1ccc(O)cc1)C(=O)N1CCC[C@H]1C(=O)NCC(=O)N[C@@H](CCC(N)=O)C(=O)N[C@H](C(=O)N[C@@H](CS)C(=O)N[C@@H](C)C(=O)N[C@@H](CC(N)=O)C(=O)N[C@@H](CC(=O)O)C(N)=O)C(C)C [PAR4-based] (H-GGTQTPSVYDESGSTGGGDDSTPSILPAPRGYPGQVCAND-NH2)
+++ (ultrafast processing within 2 min): TL unmasking (U), Trypsin-1 [1, 9] | TL unmasking (U), Trypsin-2 [2, 9] | TL unmasking (U), Trypsin-3 [3, 9] | TL unmasking (U), Thrombin [5, 9]
2 min: Incubation time at which the first cleavage or decrease of the full-length peptide was observed, trypsin-1 [1] | Incubation time at which the first cleavage or decrease of the full-length peptide was observed, trypsin-2 [2] | Incubation time at which the first cleavage or decrease of the full-length peptide was observed, trypsin-3 [3] | Incubation time at which the first cleavage or decrease of the full-length peptide was observed, thrombin [5]
> 30 min: Incubation time at which the first cleavage or decrease of the full-length peptide was observed, tryptase [4] | Incubation time at which the first cleavage or decrease of the full-length peptide was observed, cathepsin G ([6]; 37 °C, time points 2, 5, 10, 30 min) | Incubation time at which the first cleavage or decrease of the full-length peptide was observed, neutrophil elastase [7] | Incubation time at which the first cleavage or decrease of the full-length peptide was observed, pancreatic elastase [8]
−: TL disarming (D), Trypsin-1 [1, 9] | TL disarming (D), Trypsin-2 [2, 9] | TL disarming (D), Trypsin-3 [3, 9] | TL disarming (D), Tryptase [4, 9] | TL unmasking (U), Tryptase [4, 9] | TL disarming (D), Thrombin [5, 9] | TL disarming (D), Cathepsin G [6, 9] | TL unmasking (U), Cathepsin G [6, 9] | TL disarming (D), Neutrophil Elastase [7, 9] | TL unmasking (U), Neutrophil Elastase [7, 9] | TL disarming (D), Pancreatic Elastase [8, 9] | TL unmasking (U), Pancreatic Elastase [8, 9]

CC[C@H](C)[C@H](NC(=O)[C@H](CO)NC(=O)[C@H](CC(N)=O)NC(=O)[C@H](CC(C)C)NC(=O)[C@H](Cc1ccc(O)cc1)NC(=O)[C@H](CCCCN)NC(=O)[C@H](CCCCN)NC(=O)[C@@H](NC(=O)[C@H](C)NC(=O)[C@H](CCSC)NC(=O)[C@H](CCC(N)=O)NC(=O)[C@H](CCCCN)NC(=O)[C@H](CCCN=C(N)N)NC(=O)[C@H](CC(C)C)NC(=O)[C@H](CCCN=C(N)N)NC(=O)[C@@H](NC(=O)[C@H](Cc1ccc(O)cc1)NC(=O)[C@H](CC(N)=O)NC(=O)[C@H](CC(=O)O)NC(=O)[C@@H](NC(=O)[C@H](Cc1ccccc1)NC(=O)[C@@H](NC(=O)[C@H](C)NC(=O)[C@H](CC(=O)O)NC(=O)[C@H](CO)NC(=O)[C@@H](N)Cc1c[nH]cn1)C(C)C)[C@@H](C)O)[C@@H](C)O)C(C)C)C(=O)N[C@@H](CC(C)C)C(=O)N[C@@H](CC(N)=O)C(N)=O [VIP, Vasoactive intestinal peptide]
+++ (ultrafast processing within 2 min): Efficiency of the first cleavage in the peptide, Trypsin-1 [1, 10] | Efficiency of the first cleavage in the peptide, Trypsin-2 [2, 10] | Efficiency of the first cleavage in the peptide, Trypsin-3 [3, 10] | Efficiency of the first cleavage in the peptide, Tryptase [4, 10] | Efficiency of the first cleavage in the peptide, Cathepsin G [6, 10] | Efficiency of the first cleavage in the peptide, Neutrophil Elastase [7, 10] | Efficiency of the first cleavage in the peptide, Pancreatic Elastase [8, 10]
2 min: Incubation time at which the first cleavage or decrease of the full-length peptide was observed, trypsin-1 [1] | Incubation time at which the first cleavage or decrease of the full-length peptide was observed, trypsin-2 [2] | Incubation time at which the first cleavage or decrease of the full-length peptide was observed, trypsin-3 [3] | Incubation time at which the first cleavage or decrease of the full-length peptide was observed, tryptase [4] | Incubation time at which the first cleavage or decrease of the full-length peptide was observed, neutrophil elastase [7] | Incubation time at which the first cleavage or decrease of the full-length peptide was observed, pancreatic elastase [8]
−: Efficiency of the first cleavage in the peptide, Thrombin [5, 10]
> 30 min: Incubation time at which the first cleavage or decrease of the full-length peptide was observed, thrombin [5]
